The supplement of paper PMC10307832

Key:
Assay in all cases: relative viability (nuclei count vs DMSO), 5 days (fraction); higher = more cells survive
[1] = compound: CC1=C(CC(=O)O)c2cc(F)ccc2/C1=C\c1ccc([S+](C)[O-])cc1 [Sulindac] + N=C(N)NC(=N)NCCc1ccccc1 [Phenformin] (partner 250 µM)
Outline: (§1)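 Relative viability equals treated-well nuclei counts divided by vehicle-well nuclei counts. Counts came from 4× images of lung cancer cell lines grown in 1536-well plates for 5 days after pin-tool dosing on the day after seeding. Dosing used one drug alone or a fixed anchor-drug dose plus five library-drug doses (not always all listed) in √10 steps, and values are medians of duplicate plates.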

[2] = compound: CN[C@@H]1C[C@H]2O[C@@](C)([C@@H]1OC)n1c3ccccc3c3c4c(c5c6ccccc6n2c5c31)C(=O)NC4 [Staurosporine] + C[C@@H](Oc1cc(-c2cnn(C3CCNCC3)c2)cnc1N)c1c(Cl)ccc(F)c1Cl [Crizotinib] (partner 1 µM)
Outline: as §1

[3] = compound: O=c1[nH]cc(F)c(=O)[nH]1 [5-Fluorouracil] + Cc1cc(Nc2cc(N3CCN(C)CC3)nc(Sc3ccc(NC(=O)C4CC4)cc3)n2)n[nH]1 [Tozasertib] (partner 0.1 µM)
Outline: as §1

[4] = compound: CN[C@@H]1C[C@H]2O[C@@](C)([C@@H]1OC)n1c3ccccc3c3c4c(c5c6ccccc6n2c5c31)C(=O)NC4 [Staurosporine] + N=C(N)NC(=N)NCCc1ccccc1 [Phenformin] (partner 250 µM)
Outline: as §1

## NCI-H1755
[1]; first compound 0.08 µM
  relative viability: 0.645
[1]; first compound 0.253 µM
  relative viability: 0.653
[1]; first compound 0.8 µM
  relative viability: 0.525
[1]; first compound 2.53 µM
  relative viability: 0.643
[1]; first compound 8 µM
  relative viability: 0.648
[2]; first compound 0.005 µM
  relative viability: 0.569
[2]; first compound 0.01581 µM
  relative viability: 0.352
[2]; first compound 0.05 µM
  relative viability: 0.179
[2]; first compound 0.1581 µM
  relative viability: 0.176
[2]; first compound 0.5 µM
  relative viability: 0.163
[3]; first compound 0.02 µM
  relative viability: 0.643
[3]; first compound 0.2 µM
  relative viability: 0.523
[3]; first compound 0.6325 µM
  relative viability: 0.309
[3]; first compound 2 µM
  relative viability: 0.28
[4]; first compound 0.005 µM
  relative viability: 0.384
[4]; first compound 0.01581 µM
  relative viability: 0.24
[4]; first compound 0.05 µM
  relative viability: 0.196
[4]; first compound 0.1581 µM
  relative viability: 0.195
[4]; first compound 0.5 µM
  relative viability: 0.161

## EPLC-272H
[1]; first compound 0.08 µM
  relative viability: 0.272
[1]; first compound 0.253 µM
  relative viability: 0.324
[1]; first compound 2.53 µM
  relative viability: 0.307
[1]; first compound 8 µM
  relative viability: 0.263
[2]; first compound 0.005 µM
  relative viability: 0.864
[2]; first compound 0.01581 µM
  relative viability: 0.559
[2]; first compound 0.05 µM
  relative viability: 0.459
[2]; first compound 0.1581 µM
  relative viability: 0.155
[2]; first compound 0.5 µM
  relative viability: 0.124
[3]; first compound 0.02 µM
  relative viability: 0.292
[3]; first compound 0.2 µM
  relative viability: 0.223
[3]; first compound 0.6325 µM
  relative viability: 0.259
[3]; first compound 2 µM
  relative viability: 0.222
[4]; first compound 0.005 µM
  relative viability: 0.22
[4]; first compound 0.01581 µM
  relative viability: 0.0782
[4]; first compound 0.05 µM
  relative viability: 0.0721
[4]; first compound 0.1581 µM
  relative viability: 0.0546
[4]; first compound 0.5 µM
  relative viability: 0.0603

## NCI-H2228
[1]; first compound 0.08 µM
  relative viability: 0.388
[1]; first compound 0.253 µM
  relative viability: 0.352
[1]; first compound 0.8 µM
  relative viability: 0.254
[1]; first compound 2.53 µM
  relative viability: 0.271
[1]; first compound 8 µM
  relative viability: 0.341
[2]; first compound 0.005 µM
  relative viability: 0.292
[2]; first compound 0.01581 µM
  relative viability: 0.234
[2]; first compound 0.05 µM
  relative viability: 0.177
[2]; first compound 0.1581 µM
  relative viability: 0.169
[2]; first compound 0.5 µM
  relative viability: 0.132
[3]; first compound 0.02 µM
  relative viability: 0.293
[3]; first compound 0.2 µM
  relative viability: 0.25
[3]; first compound 0.6325 µM
  relative viability: 0.24
[3]; first compound 2 µM
  relative viability: 0.187
[4]; first compound 0.005 µM
  relative viability: 0.254
[4]; first compound 0.01581 µM
  relative viability: 0.166
[4]; first compound 0.05 µM
  relative viability: 0.11
[4]; first compound 0.1581 µM
  relative viability: 0.0655
[4]; first compound 0.5 µM
  relative viability: 0.0891
